Experimental data reported in PubChem BioAssay AID248 (DTP/NCI, 2004).
“And” between values parts separate entries of the source, which are not always exact repeats. Equal values may be shown once. Inconclusive results and toxic doses are left out. No stated cut-off is given here; in the data, active means T/C of 150% or more; inactive means T/C below 125%.

Test system: L1210 leukemia ip in BDF1 mice, survival T/C
Assay: NCI In Vivo Anticancer Drug Screen. Data for tumor model L1210 Leukemia (intraperitoneal) in B6D2F1 (BDF1) mice
Conditions: endpoint: mean survival time, higher = longer survival
Summary of the method: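 Transplantable tumor model; survival measured in treated vs vehicle control mice. Value = treated/control.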

[1] = dose: 100.0 mg/kg/injection, schedule: Q01DX009 (ip), vehicle: Klucel (hydroxypropylcellulose) (HPC)
[2] = dose: 200.0 mg/kg/injection, schedule: Q01DX009 (ip), vehicle: Klucel (hydroxypropylcellulose) (HPC)
[3] = dose: 400.0 mg/kg/injection, schedule: Q01DX009 (ip), vehicle: Klucel (hydroxypropylcellulose) (HPC)
[4] = dose: 100.0 mg/kg/injection, schedule: Q01DX001 (ip), vehicle: saline
[5] = dose: 50.0 mg/kg/injection, schedule: Q01DX009 (ip), vehicle: Klucel (hydroxypropylcellulose) (HPC)
[6] = dose: 100.0 mg/kg/injection, schedule: Q01DX009 (ip), vehicle: saline
[7] = dose: 200.0 mg/kg/injection, schedule: Q01DX009 (ip), vehicle: saline
[8] = dose: 100.0 mg/kg/injection, schedule: Q04DX003 (ip), vehicle: Klucel (hydroxypropylcellulose) (HPC)
[9] = dose: 200.0 mg/kg/injection, schedule: Q04DX003 (ip), vehicle: Klucel (hydroxypropylcellulose) (HPC)
[10] = dose: 400.0 mg/kg/injection, schedule: Q04DX003 (ip), vehicle: Klucel (hydroxypropylcellulose) (HPC)
[11] = dose: 100.0 mg/kg/injection, schedule: Q04DX003 (ip), vehicle: saline
[12] = dose: 200.0 mg/kg/injection, schedule: Q04DX003 (ip), vehicle: saline
[13] = dose: 400.0 mg/kg/injection, schedule: Q01DX009 (ip), vehicle: saline
[14] = dose: 400.0 mg/kg/injection, schedule: Q04DX003 (ip), vehicle: saline
[15] = dose: 100.0 mg/kg/injection, schedule: Q04DX002 (ip), vehicle: gum acacia
[16] = dose: 200.0 mg/kg/injection, schedule: Q04DX002 (ip), vehicle: gum acacia
[17] = dose: 400.0 mg/kg/injection, schedule: Q04DX002 (ip), vehicle: gum acacia
[18] = dose: 50.0 mg/kg/injection, schedule: Q01DX001 (ip), vehicle: carboxymethylcellulose (CMC)
[19] = dose: 100.0 mg/kg/injection, schedule: Q01DX001 (ip), vehicle: carboxymethylcellulose (CMC)
[20] = dose: 200.0 mg/kg/injection, schedule: Q01DX001 (ip), vehicle: carboxymethylcellulose (CMC)
[21] = dose: 400.0 mg/kg/injection, schedule: Q01DX001 (ip), vehicle: carboxymethylcellulose (CMC)
[22] = dose: 100.0 mg/kg/injection, schedule: Q04DX003 (ip), vehicle: other
[23] = dose: 200.0 mg/kg/injection, schedule: Q04DX003 (ip), vehicle: other

Measured: T/C

CCCC(=O)Nc1cc([N+](=O)[O-])ccc1OC
inactive: [1] 104 % of control | [2] 104 % of control | [3] 98 % of control

O=C1CC(c2cccc(S(=O)(=O)O)c2)=NN1c1ccc([N+](=O)[O-])cn1
inactive: dose: 12.5 mg/kg/injection, schedule: Q04DX003 (ip), vehicle: saline 95 % of control | dose: 25.0 mg/kg/injection, schedule: Q04DX003 (ip), vehicle: saline 95 % of control | dose: 50.0 mg/kg/injection, schedule: Q04DX003 (ip), vehicle: saline 95 % of control

Cc1c(C)c2cccc(C)c2[nH]c1=O
inactive: [4] 95 % of control | dose: 200.0 mg/kg/injection, schedule: Q01DX001 (ip), vehicle: saline 95 % of control | dose: 400.0 mg/kg/injection, schedule: Q01DX001 (ip), vehicle: saline 103 % of control

O=C(O)/C(Br)=C\c1ccc(Br)o1
inactive: [5] 97 % of control | [1] 94 % of control | dose: 100.0 mg/kg/injection, schedule: Q04DX002 (ip), vehicle: Klucel (hydroxypropylcellulose) (HPC) 97 % of control | [2] 97 % of control | dose: 200.0 mg/kg/injection, schedule: Q04DX002 (ip), vehicle: Klucel (hydroxypropylcellulose) (HPC) 90 % of control

ClC1C(Cl)C(Cl)C(Cl)C(Cl)C1Cl (stereo not drawn)
inactive: dose: 50.0 mg/kg/injection, schedule: Q01DX009 (ip), vehicle: saline 103 % of control | [6] 103 % of control | [7] 108 % of control

CS(=O)(=O)OCCCN(CCCOS(C)(=O)=O)c1ccc(C=Nc2ccc(-c3csc(COc4ccc(Cl)cc4)n3)cc2)cc1
inactive: dose: 100.0 mg/kg/injection, schedule: Q01DX009 (ip), vehicle: saline with Tween-80 97 % of control | dose: 200.0 mg/kg/injection, schedule: Q01DX009 (ip), vehicle: saline with Tween-80 94 % of control | dose: 400.0 mg/kg/injection, schedule: Q01DX009 (ip), vehicle: saline with Tween-80 94 % of control

CC(C)CN(CC(C)C)c1nn[nH]n1
inactive: [8] 92 % of control | [9] 98 % of control | [10] 98 % of control

OCCCCC(O)c1ccccc1 (stereo not drawn)
inactive: [6] 107 % of control | [11] 116 % of control | [7] 96 % of control | [12] 107 % of control | [13] 100 % of control | [14] 112 % of control

CN(C)c1ccc(/C=N/NC(=O)CCCCCCCCC(=O)N/N=C/c2ccc(N(C)C)cc2)cc1
inactive: dose: 12.5 mg/kg/injection, schedule: Q01DX009 (ip), vehicle: saline with Tween-80 101 % of control and 104 % of control | dose: 25.0 mg/kg/injection, schedule: Q01DX009 (ip), vehicle: saline with Tween-80 94 % of control and 97 % of control | dose: 50.0 mg/kg/injection, schedule: Q04DX003 (ip), vehicle: saline with Tween-80 98 % of control | dose: 100.0 mg/kg/injection, schedule: Q01DX001 (ip), vehicle: saline with Tween-80 100 % of control | dose: 100.0 mg/kg/injection, schedule: Q04DX002 (ip), vehicle: saline with Tween-80 101 % of control and 104 % of control | dose: 100.0 mg/kg/injection, schedule: Q04DX003 (ip), vehicle: saline with Tween-80 93 % of control | dose: 200.0 mg/kg/injection, schedule: Q01DX001 (ip), vehicle: saline with Tween-80 100 % of control | dose: 200.0 mg/kg/injection, schedule: Q04DX002 (ip), vehicle: saline with Tween-80 101 % of control and 102 % of control | dose: 400.0 mg/kg/injection, schedule: Q04DX002 (ip), vehicle: saline with Tween-80 108 % of control

S=P(NNc1ccccc1)(NNc1ccccc1)c1ccc(Cl)cc1
inactive: [15] 89 % of control | [16] 89 % of control | [17] 92 % of control

CCCCCCCCCC(=O)N1CCCN(C(=O)CCCCCCCCC)C1
inactive: dose: 30.0 mg/kg/injection, schedule: Q01DX001 (ip), vehicle: saline 102 % of control | [4] 98 % of control | dose: 300.0 mg/kg/injection, schedule: Q01DX001 (ip), vehicle: saline 93 % of control

C/C=C\CCCCCCC
inactive: [18] 90 % of control | [19] 90 % of control | [20] 95 % of control | [21] 90 % of control

CCCCC/C=C/c1c(C)[nH]c2ccccc2c1=O
inactive: [1] 118 % of control | [8] 100 % of control | [2] 94 % of control | [9] 96 % of control | [3] 99 % of control | [10] 89 % of control

NC(=O)C(N)=O
inactive: [6] 93 % of control | [11] 106 % of control | [7] 103 % of control | [12] 101 % of control | [13] 101 % of control | [14] 97 % of control

CC1CN=C(c2c(O)ccc3ccccc23)S1 (stereo not drawn)
inactive: [15] 96 % of control | [16] 93 % of control | [17] 90 % of control

Cc1ccccc1N=Nc1ccc(N(C)C)cc1
inactive: [18] 93 % of control | [19] 107 % of control | [8] 95 % of control | [20] 86 % of control | [9] 95 % of control | [21] 98 % of control | [10] 91 % of control

CCCCC1C(=O)N=C2C=CC=CN2C1=O (stereo not drawn)
inactive: dose: 25.0 mg/kg/injection, schedule: Q01DX009 (ip), vehicle: Klucel (hydroxypropylcellulose) (HPC) 102 % of control | [5] 100 % of control | [1] 110 % of control | [22] 104 % of control | [23] 102 % of control

CC(=O)OC1CCC2(C)C(CCC3C2CCC2(C)C(C(C)=O)CCC32)C1 (stereo not drawn)
inactive: dose: 100.0 mg/kg/injection, schedule: Q01DX009 (sc), vehicle: steriod suspending solution 95 % of control | dose: 200.0 mg/kg/injection, schedule: Q01DX009 (sc), vehicle: steriod suspending solution 95 % of control | dose: 400.0 mg/kg/injection, schedule: Q01DX009 (sc), vehicle: steriod suspending solution 90 % of control

CCN(CC)CCOc1ccc(C(C)(C)c2ccc(OCCN(CC)CC)cc2)cc1
inactive: dose: 100.0 mg/kg/injection, schedule: Q04DX002 (ip), vehicle: saline 108 % of control | dose: 200.0 mg/kg/injection, schedule: Q04DX002 (ip), vehicle: saline 108 % of control

Oc1c(Cl)cc(Cl)cc1CNCc1ccccc1
inactive: dose: 100.0 mg/kg/injection, schedule: Q01DX001 (ip), vehicle: other 93 % of control | [22] 110 % of control | dose: 200.0 mg/kg/injection, schedule: Q01DX001 (ip), vehicle: other 94 % of control | [23] 102 % of control | dose: 400.0 mg/kg/injection, schedule: Q01DX001 (ip), vehicle: other 90 % of control | dose: 400.0 mg/kg/injection, schedule: Q04DX003 (ip), vehicle: other 110 % of control

O=C1c2ccccc2CCCC12OC2c1ccccc1 (stereo not drawn)
inactive: dose: 75.0 mg/kg/injection, schedule: Q04DX003 (ip), vehicle: Klucel (hydroxypropylcellulose) (HPC) 92 % of control | dose: 150.0 mg/kg/injection, schedule: Q04DX003 (ip), vehicle: Klucel (hydroxypropylcellulose) (HPC) 93 % of control | dose: 300.0 mg/kg/injection, schedule: Q04DX003 (ip), vehicle: Klucel (hydroxypropylcellulose) (HPC) 95 % of control

COc1ccc2nc3cc(Cl)ccc3c(NCCO)c2c1
inactive: dose: 75.0 mg/kg/injection, schedule: Q01DX001 (ip), vehicle: Klucel (hydroxypropylcellulose) (HPC) 100 % of control | [19] 100 % of control | [11] 96 % of control | dose: 150.0 mg/kg/injection, schedule: Q01DX001 (ip), vehicle: Klucel (hydroxypropylcellulose) (HPC) 96 % of control | [20] 100 % of control | [12] 96 % of control | dose: 300.0 mg/kg/injection, schedule: Q01DX001 (ip), vehicle: Klucel (hydroxypropylcellulose) (HPC) 96 % of control | [21] 108 % of control | [14] 89 % of control
